Experiment [1] addresses T1, P2Y receptor (turkey erythrocyte membranes) (Meleagris gallopavo, UniProt P49652).
T1 construct: from tissue; host or cells: washed turkey erythrocytes, ghosts prepared by hypotonic lysis
Put plainly: Stimulation of phospholipase C (inositol phosphate formation) in turkey erythrocyte membranes. Type of experiment: biochemical. As to the method:
Phospholipase C activity: Stimulation of inositol phosphate formation by compounds of the present invention was measured in turkey erythrocyte membranes as described by Harden et al., supra and Boyer et al., supra. The K0.5 values were averaged from 3-8 independently determined dose-response curves for each compound. Briefly, one ml of washed turkey erythrocytes was incubated in inositol-free medium (DMEM; Gibco) with 0.5-1 mCi of 2-[^3 H]myoinositol (20 Ci/mmol; American Radiolabeled Chemicals Inc., St. Louis, Mo.)for 18-24 h in a humidified atmosphere of 95% air 5% CO2 at 37° C. Erythrocyte ghosts were prepared by rapid lysis in hypotonic buffer (5 mM sodium phosphate, pH 7.4, 5 mM MgCl2, 1 mM EGTA) as described by Boyer et al., supra. Phospholipase C activity was measured in 25 μl of [^3 H]inositol-labeled ghosts (≈175 μg of protein, 200-500,000 cpm/assay) in a medium containing 424 μM CaC12, 0.91 mM MgSO4, 2 mM EGTA, 115 mM KCl, 5 mM KH2 PO4, and 10 mM Hepes, pH 7.0. Assay (100 μl or 200 μl final volume) contained 1 μM GTPγS and the indicated concentrations of nucleotide analogs. Ghosts were incubated at 30° C. for 5 min, and total [^3 H]inositol phosphates were quantitated after purification by anion exchange chromatography according to Harden et al. (supra) and Boyer et al. (supra).
(§1) Phospholipase C activity and muscle relaxation/contraction effects were assessed using the methods recited in Example 3. In FIGS. 10-12, which present the result of assays of phospholipase C activity in turkey erythrocyte membranes, the x-axis is marked in units of the log of the molar concentration of the putative P2Y receptor agonist tested and the y-axis is marked in units of the percentage of maximum production of [^3 H]-inositol phosphate generated. In FIG. 13, the x-axis is marked in units of the negative log of the molar concentration of applied putative P2Y receptor agonists and the y-axis is marked in units of the percentage relaxation of the 50 nM carbachol-induced contraction of guinea pig taenia coli. In FIG. 14, the x-axis is also marked in units of the negative log of the molar concentration of applied putative P2Y receptor agonists and the y-axis is marked in units of the percentage relaxation of the 1 μM noradrenalin-induced contraction of rabbit aorta endothelium. In FIGS. 15-16, the x-axis is marked in units of the negative log of the molar concentration of applied putative p^2X receptor agonists and the y-axis is marked in units of the percentage contraction relative to a standard dose of KCl (i.e., 60 mM), as assessed in guinea pig isolated urinary bladder detrussor muscle (FIG. 15) and guinea pig isolated vas deferens (FIG. 16).

For experiment [2], the target named is T2, P2Y receptor (taenia coli) (Cavia porcellus, UniProt P59902).
T2 construct: Relaxant responses mediated via P2Y receptors were examined in guinea pig taenia coli; from tissue; host or cells: guinea pig taenia coli (carbachol-contracted)
T2 sequence (P59902 whole entry): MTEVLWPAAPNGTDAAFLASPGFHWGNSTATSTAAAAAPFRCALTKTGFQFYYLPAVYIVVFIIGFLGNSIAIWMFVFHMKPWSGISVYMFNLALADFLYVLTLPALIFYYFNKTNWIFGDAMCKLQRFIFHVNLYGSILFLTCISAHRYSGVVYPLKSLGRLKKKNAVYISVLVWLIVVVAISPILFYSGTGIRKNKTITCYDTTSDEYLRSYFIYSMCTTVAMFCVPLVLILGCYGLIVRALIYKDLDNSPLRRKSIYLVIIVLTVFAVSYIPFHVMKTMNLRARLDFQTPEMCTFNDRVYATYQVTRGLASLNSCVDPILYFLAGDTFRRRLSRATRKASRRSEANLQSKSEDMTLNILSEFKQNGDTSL
Briefly: Relaxation of carbachol-contracted guinea pig taenia coli.
Source text: Muscular relaxation/contraction: Relaxant responses mediated via P2Y receptors were examined in guinea pig taenia coli, rabbit aorta, and rabbit mesenteric artery, as described by Hoyle et al. (Br. J. Pharmacol., 107, 367-374 (1992a)), Burnstock et al., (Br. J. Pharmacol., 90, 383-391 (1987a)), and Rubino et al., (Eur. J. Pharmacol., 212, 237-240 (1992)). Contractile responses mediated via P2X receptors were examined in the guinea pig urinary bladder and vas deferens, and rabbit saphenous artery, also using standard methods (see Hoyle et al., supra., 1992; Hoyle et al., Br. J. Pharmacol., 99, 617-621 (1990); and Burnstock et al., Br. J. Pharmacol., 90, 111-120 (1987b)).
Muscular relaxation assays were performed as recited in Example 3. […] All curves are the mean of two determinations except for 5'-ATP (n=38), 2-hexylthio-ATP (n=4), 2-(5-hexenyl)thio-ATP (n=3), and 2-(2-4-nitrophenylethyl)thio-AMP (n=5). […] The pD2 value for 2-methylthio-ATP is 8.0±0.15, as reported by Hoyle et al., in Receptor Data for Biological Experiments, (H. N. Doods and J. C. A. Van Meel, eds., 1992b) at pp. 54-61.
as §1

Experiment [3] deals with P2Y receptor (aorta endothelium). Briefly: Relaxation of noradrenalin-contracted rabbit aorta. Particulars: rabbit aorta; log molar units.
Experiment [4] concerns the target P2Y receptor (mesenteric artery). Put plainly: Relaxation of rabbit mesenteric artery. The following applies: log molar units.
Setting [5] is: turkey erythrocyte membranes, mean ± S.E.M. for at least 2 determinations, read-out: phosphatidyl inositol metabolism (K0.5, nM) erythrocyte.
Setting [6] is: turkey erythrocyte membranes, read-out: K0.5.

We go through 20 compounds from patent US5620676A, “Biologically active ATP analogs” (priority 1995, dated 1997).

“Also recorded” adds a separate entry of the source. Like-named read-outs stand apart in the source and are kept apart here.

T1 sequence (P49652 whole entry): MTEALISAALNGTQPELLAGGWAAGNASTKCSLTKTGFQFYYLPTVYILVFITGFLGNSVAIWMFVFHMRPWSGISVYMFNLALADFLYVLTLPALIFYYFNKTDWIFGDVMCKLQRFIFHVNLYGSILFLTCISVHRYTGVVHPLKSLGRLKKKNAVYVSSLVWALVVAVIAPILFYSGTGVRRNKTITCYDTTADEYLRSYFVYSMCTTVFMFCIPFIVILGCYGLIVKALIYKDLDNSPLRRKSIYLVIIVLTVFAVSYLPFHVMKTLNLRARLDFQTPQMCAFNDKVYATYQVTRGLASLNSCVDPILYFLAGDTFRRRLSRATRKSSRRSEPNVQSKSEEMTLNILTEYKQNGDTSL

Take `CCSCCSc1nc(N)c2ncn([C@@H]3O[C@H](COP(=O)(O)O)[C@@H](O)[C@H]3O)c2n1`: in experiment [1] (setting [5]), the EC50 turned out to be 1000 nM.

As to `Cn1c(=O)c2c(ncn2C)n(CCOP(=O)(O)OP(=O)(O)OP(=O)(O)O)c1=O` [1,7-dimethyl-3-(2-hydroxyethyl)xanthine triphosphate], the EC50 in experiment [1] (setting [6]) was found to be 100000 nM.

On to `Nc1ccc(CCSc2nc(N)c3ncn([C@@H]4O[C@H](COP(=O)(O)OP(=O)(O)OP(=O)(O)O)[C@@H](O)[C@H]4O)c3n2)cc1` [2-(2-p-Aminophenylethyl)-thio-ATP, 2-[2-(p-Aminophen)ethylthio]adenosine 5'-triphosphate], for which, in experiment [1] (turkey erythrocyte membranes), the “activity/potency in words, turkey erythrocyte” value is recorded as “at least two orders of magnitude more potent”. The EC50 in experiment [1] (setting [5]) was 1.53 ± 0.21 nM; in experiment [1] (setting [6]), 5 to 30 nM.

Turning to `Nc1nc(SCCc2ccc([N+](=O)[O-])cc2)nc2c1ncn2[C@@H]1O[C@H](COP(=O)(O)O)[C@@H](O)[C@H]1O` [2-(2-p-Nitrophenylethyl)-thio-AMP, 2-[2-(p-nitrophen)ethylthio]adenosine 5'-monophosphate], the EC50 in experiment [1] (setting [5]) stood at 3000 ± 1200 nM. In addition, the “activity/potency in words, taenia coli” value in experiment [2] (guinea pig taenia coli) is “slightly less potent than ATP”. The “relaxation pD2, taenia coli” value in experiment [2] (guinea pig taenia coli, log molar units) was 6.5. Further, the “relaxation pD2, aorta” value in experiment [3] was 6.1. In addition, in experiment [4], the “relaxation pD2, mes. artery” value was determined as 5.0.

As to `NCCCCCCCSc1nc(N)c2ncn([C@@H]3O[C@H](COP(=O)(O)OP(=O)(O)OP(=O)(O)O)[C@@H](O)[C@H]3O)c2n1` [2-(7-Aminoheptyl)thio-ATP, 2-(7-Aminoheptylthio)-adenosine-5'-triphosphate], in experiment [1] (setting [5]), the EC50 turned out to be 72.8 ± 46.6 nM.

Consider `Nc1nc(SCCCCCCCS)nc2c1ncn2[C@@H]1O[C@H](COP(=O)(O)OP(=O)(O)OP(=O)(O)O)[C@@H](O)[C@H]1O` [2-(7-Thioheptyl)thio-ATP, 2-(7-Thioheptylthio)-adenosine-5'-triphosphate], for which the EC50 in experiment [1] (setting [5]) turned out to be 773 ± 328 nM.

`Nc1nc(SC2CCCCC2)nc2c1ncn2[C@@H]1O[C@H](COP(=O)(O)OP(=O)(O)OP(=O)(O)O)[C@@H](O)[C@H]1O` [2-Cyclohexylthio-ATP, 2-cyclohexylthio-ATP]: in experiment [1] (turkey erythrocyte membranes), the “activity/potency in words, turkey erythrocyte” value is recorded as “at least two orders of magnitude more potent”. The EC50 was 24 ± 4 nM in experiment [1] (setting [5]), 5 to 30 nM in experiment [1] (setting [6]) and 0.0158 µM in experiment [2]. Besides, the “relaxation pD2, aorta” value in experiment [3] was 6.3. The “relaxation pD2, mes. artery” value in experiment [4] is listed as 5.9.

Turning to `Nc1nc(SCCc2ccccc2)nc2c1ncn2[C@@H]1O[C@H](COP(=O)(O)OP(=O)(O)OP(=O)(O)O)[C@@H](O)[C@H]1O` [2-Phenylethylthio-ATP, 2-phenylethylthio-ATP], in experiment [1] (turkey erythrocyte membranes), the “activity/potency in words, turkey erythrocyte” value is “at least two orders of magnitude more potent”. The EC50 was 30 ± 17 nM in experiment [1] (setting [5]), 5 to 30 nM in experiment [1] (setting [6]) and 0.0794 µM in experiment [2]. Further, the “relaxation pD2, aorta” value in experiment [3] amounted to 6.5. Besides, the “relaxation pD2, mes. artery” value in experiment [4] worked out at 6.2.

On to `N#CSCCCCCCCSc1nc(N)c2ncn([C@@H]3O[C@H](COP(=O)(O)OP(=O)(O)OP(=O)(O)O)[C@@H](O)[C@H]3O)c2n1` [2-[(7-Thiocyanatoheptyl)thio]-ATP, 2-(7-Thiocyanatoheptylthio)-adenosine-5'-triphosphate], for which the “activity/potency in words, turkey erythrocyte” value in experiment [1] (turkey erythrocyte membranes) is “at least two orders of magnitude more potent”. Also, the EC50 in experiment [1] (setting [5]) was 25.9 ± 10 nM; in experiment [1] (setting [6]), 5 to 30 nM.

On to `CCCCCCCCCCSc1nc(N)c2ncn([C@@H]3O[C@H](COP(=O)(O)O)[C@@H](O)[C@H]3O)c2n1` [2-decylthio AMP], for which the EC50 in experiment [1] (setting [5]) stood at 214 ± 2 nM.

Consider `CCCCCCCSc1nc(N)c2ncn([C@@H]3O[C@H](COP(=O)(O)O)[C@@H](O)[C@H]3O)c2n1` [2-hepylthio AMP], for which, in experiment [1] (setting [5]), the EC50 is 1000 nM.

Regarding `CCCCCCSc1nc(N)c2ncn([C@@H]3O[C@H](COP(=O)(O)O)[C@@H](O)[C@H]3O)c2n1` [2-hexylthio AMP], in experiment [1] (setting [5]), the EC50 was 58 ± 5 nM.

Consider `CCCCCCCCSc1nc(N)c2ncn([C@@H]3O[C@H](COP(=O)(O)O)[C@@H](O)[C@H]3O)c2n1` [2-octylthio AMP], for which the EC50 in experiment [1] (setting [5]) was found to be 295 ± 6 nM.

For the compound `CCCCCSc1nc(N)c2ncn([C@@H]3O[C@H](COP(=O)(O)O)[C@@H](O)[C@H]3O)c2n1` [2-pentylthio AMP], the EC50 in experiment [1] (setting [5]) amounted to 10000 nM.

As to `CCCCCCCCCCCSc1nc(N)c2ncn([C@@H]3O[C@H](COP(=O)(O)O)[C@@H](O)[C@H]3O)c2n1` [2-undecylthio AMP], the EC50 in experiment [1] (setting [5]) is 1000 nM.

Consider `Nc1ncnc2c1ncn2[C@@H]1O[C@H](COP(=O)(O)OP(O)(O)=S)[C@@H](O)[C@H]1O` [ADP-β-S, reference compound], for which, in experiment [1] (relative to ADP), the “times more potent than ADP, turkey erythrocyte” value is approximately 400 times. In experiment [1] (relative to ATP), the “times more potent than ATP, turkey erythrocyte” value is listed as “approximately 140 times”. In experiment [1] (turkey erythrocyte membranes), the “activity/potency in words, turkey erythrocyte” value is on record as “enhanced potency relative to the parent compound; also recorded: a very high affinity for the turkey erythrocyte P2Y receptor”. Also, the EC50 in experiment [1] (setting [5]) is 96 ± 27 nM. In addition, the “activity/potency in words, taenia coli” value in experiment [2] (guinea pig taenia coli) was “not in the taenia coli; also recorded: no greater affinity for the P2Y receptor in the guinea-pig taenia coli than ATP or ADP”. Further, the “relaxation pD2, aorta” value in experiment [3] came to 5.8. Further, the “relaxation pD2, mes. artery” value in experiment [4] was 5.8.

For the compound `Nc1ncnc2c1ncn2[C@@H]1O[C@H](COP(=O)(O)OP(=O)(O)OP(O)(O)=S)[C@@H](O)[C@H]1O` [ATP-γ-S, reference compound], the “activity/potency in words, turkey erythrocyte” value in experiment [1] (turkey erythrocyte membranes) is given as “enhanced potency relative to the parent compound”. Moreover, in experiment [1] (setting [5]), the EC50 is 1260 ± 380 nM. Also, the “activity/potency in words, taenia coli” value in experiment [2] (guinea pig taenia coli) is on record as “not in the taenia coli”. In experiment [3], the “relaxation pD2, aorta” value came to 5.7. In addition, the “relaxation pD2, mes. artery” value in experiment [4] is 5.8.

In the case of `Nc1ncnc2c1ncn2[C@@H]1O[C@H](CO)[C@@H](O)[C@H]1O` [Adenosine, reference compound], the EC50 in experiment [1] (at 10^-5 M, read-out: phosphatidyl inositol metabolism (K0.5) erythrocyte, class symbol) was more than 10000 nM; in experiment [2], 126 µM. Further, in experiment [3], the “relaxation pD2, aorta” value was 5.7. In addition, the “relaxation pD2, mes. artery” value in experiment [4] is reported as 6.0.

Regarding `O=P(O)(O)OP(=O)(O)OP(=O)(O)OC[C@H]1O[C@@H](n2cnc3c(NCCc4ccccc4)ncnc32)[C@H](O)[C@@H]1O` [N^6 -phenylethyl ATP, N^6 -phenylethyl-ATP], in experiment [1] (setting [5]), the EC50 was found to be 7000 nM.

With `Cn1c(=O)c2c(ncn2CCOP(=O)(O)OP(=O)(O)OP(=O)(O)O)n(C)c1=O` [β-Hydroxyethyltheophylline triphosphate], the EC50 in experiment [1] (setting [6]) turned out to be 26900 nM.
